The source of these data is ChEMBL document CHEMBL3603789, “N-Lipidated Peptide Dimers: Effective Antibacterial Agents against Gram-Negative Pathogens through Lipopolysaccharide Permeabilization” (J Med Chem, 2015).

The test system of data set [1] is Pseudomonas aeruginosa. Description: Antibacterial activity against Pseudomonas aeruginosa DM23155 after 24 hrs by broth microdilution method. It is filed as functional. The note with it: DM23155, 24 h. On the technique in general: In broth dilution the organism is exposed to a series of concentrations in liquid medium.
Data set [2] concerns Klebsiella pneumoniae. Description: Antibacterial activity against Klebsiella pneumoniae DM4299 after 24 hrs by broth microdilution method. It is filed as functional. Conditions: DM4299, 24 h; call rule not given here.
The test system of data set [3] is Escherichia coli. Description: Antibacterial activity against Escherichia coli ATCC 25922 after 24 hrs by broth microdilution method. It is filed as functional. The note with it: ATCC 25922, 24 h.
A short description of data set [4]: Toxicity in New Zealand white rabbit erythrocytes assessed as hemolytic activity after 60 mins. It is filed as cell-based, Oryctolagus cuniculus. Conditions: erythrocyte, 1 h.
The nature of data set [5]: Self-aggregation activity of the compound using 8-(Phenylamino)-1-naphthalenesulfonic acid as fluorescent probe at 300 uM by fluorescence assay. It is filed as physicochemical.
In data set [6] the test system is Pseudomonas aeruginosa. The data set can be described thus: Antibacterial activity against Pseudomonas aeruginosa DM4150R after 24 hrs by broth microdilution method. It is filed as functional.
The subject of data set [7] is Pseudomonas aeruginosa. Description: Antibacterial activity against Pseudomonas aeruginosa DR4877 after 24 hrs by broth microdilution method. It is filed as functional. Conditions: DR4877, 24 h.
The test system of data set [8] is Pseudomonas aeruginosa. Description: Antibacterial activity against Pseudomonas aeruginosa ATCC 27853 after 24 hrs by broth microdilution method. It is filed as functional. Conditions: ATCC 27853, 24 h.
In data set [9] the test system is Pseudomonas aeruginosa. Description: Antibacterial activity against Pseudomonas aeruginosa DR18531 after 24 hrs by broth microdilution method. The note with it: DR18531, 24 h. It is filed as functional.
In data set [10] the test system is Pseudomonas aeruginosa. Description: Antibacterial activity against Pseudomonas aeruginosa ATCC 9027 after 24 hrs by broth microdilution method. Conditions: ATCC 9027, 24 h. It is filed as functional.
Data set [11] concerns Pseudomonas aeruginosa. Description: Antibacterial activity against Pseudomonas aeruginosa DU14476 after 24 hrs by broth microdilution method. It is filed as functional. Conditions: DU14476, 24 h.
The subject of data set [12] is Pseudomonas aeruginosa. Description: Antibacterial activity against Pseudomonas aeruginosa DR5790 after 24 hrs by broth microdilution method. It is filed as functional. Conditions: DR5790, 24 h.
Data set [13] has as its system Pseudomonas aeruginosa. Description: Antibacterial activity against Pseudomonas aeruginosa DM23257 after 24 hrs by broth microdilution method. It is filed as functional. Conditions: DM23257, 24 h.
Data set [14] has as its system Pseudomonas aeruginosa. Description: Antibacterial activity against Pseudomonas aeruginosa DM23376 after 24 hrs by broth microdilution method. It is filed as functional. Conditions: DM23376, 24 h.
The subject of data set [15] is Pseudomonas aeruginosa. The data set can be described thus: Induction of cytoplasmic membrane disruption in Pseudomonas aeruginosa DM23155 assessed as membrane integrity at 1 to 2 times MIC after 1 hr by fluorescence assay. It is filed as functional.
In data set [16] the test system is Lipopolysaccharide (LPS). The data set can be described thus: Induction of Escherichia coli 0111:B4 LPS neutralization using p-nitroaniline assessed as concentration required to neutralize 50% after 1 hr by limulus amebocyte lysate assay.
Data set [17] concerns Lipopolysaccharide (LPS). The data set can be described thus: Displacement of dansylcadaverine from Escherichia coli 0111:B4 LPS at 15 to 30 uM after 5 mins by high-throughput fluorescence displacement assay.
Data set [18] can be described thus: Induction of calcein leakage from DOPE/DOPG artificial membrane at 1:32 ratio of compound to lipid by fluorescence assay. It is filed as physicochemical.
For data set [19], the system named is Pseudomonas aeruginosa. The data set can be described thus: Induction of 1-N-phenylnaphthylamine uptake in Pseudomonas aeruginosa DM23155 at 400 uM after 1 hr by fluorescence assay relative to polymyxin B. It is filed as functional.

pEC50: −log10 of the molar value. In brackets after ≈: the same amount, converted by molar mass. Bridge positions count the residues as written; N and C are the ends. Peptide text beside a SMILES is read from it. I, II: the chains in the order shown. * marks the point of attachment. Palmitoyl = CCCCCCCCCCCCCCCC(=O)*; Butyryl = CCCC(=O)*

Broadly, the MIC is the least concentration at which growth counts as inhibited. A higher MIC goes with a need for much substance. As for `CCCCCCCCCCCCCCCC(=O)N[C@@H](CCCNC(=N)N)C(=O)NCC(=O)N[C@@H](CCCNC(=N)N)C(=O)N[C@@H](CCCCN)C(=O)NCC(=O)NCC(=O)N[C@@H](CCCNC(=N)N)C(=O)N[C@@H](CCCNC(=N)N)C(=O)N[C@@H](CCCCN)C(=O)N[C@@H](CCCCN)C(=O)O` (Palmitoyl-RGRKGGRRKK-OH), the minimum inhibitory concentration (MIC) is 80 µM (≈ 115 µg/mL) in data set [1], 80 µM (≈ 115 µg/mL) in [2] and 10 µM (≈ 14.4 µg/mL) in data set [3]. Further, in [4], the HC10 turned out to be 5064 µg/mL. Also, the Activity result in data set [5] is “Not Active”.

As to `COc1c(N2CCNC(C)C2)c(F)cc2c(=O)c(C(=O)O)cn(C3CC3)c12` (centres undefined) [GATIFLOXACIN], the MIC worked out at 2 µM (≈ 0.751 µg/mL) in [6]; 32 µM (≈ 12 µg/mL) in data set [7]; 4 µM (≈ 1.5 µg/mL) in data set [8]; 8 µM (≈ 3 µg/mL) in data set [9]; 2 µM (≈ 0.751 µg/mL) in [10]; 64 µM (≈ 24 µg/mL) in [11]. Also, the results for the MIC in data set [12], in data set [13] and in [14] were 64 µM (≈ 24 µg/mL), 2 µM (≈ 0.751 µg/mL) and 4 µM (≈ 1.5 µg/mL), respectively.

For orientation: pEC50 means the EC50 on a negative log10 scale, so that one unit is a factor of ten. Consider `CCCC(=O)N[C@@H](CCCNC(=N)N)C(=O)NCC(=O)N[C@@H](CCCNC(=N)N)C(=O)N[C@@H](CCCCN)C(=O)N[C@H](C(=O)N[C@H](C(=O)N[C@@H](CCCNC(=N)N)C(=O)N[C@@H](CCCNC(=N)N)C(=O)NCCCC[C@H](NC(=O)[C@H](CCCNC(=N)N)NC(=O)[C@H](CCCNC(=N)N)NC(=O)[C@@H](NC(=O)[C@@H](NC(=O)[C@H](CCCCN)NC(=O)[C@H](CCCNC(=N)N)NC(=O)CNC(=O)[C@H](CCCNC(=N)N)NC(=O)CCC)C(C)C)C(C)C)C(=O)N[C@@H](CCCCN)C(=O)O)C(C)C)C(C)C` (I: Butyryl-RGRKVVRRKK-OH / II: Butyryl-RGRKVVRR; amide I:9-II:C), for which the MIC came to 10 µM (≈ 24.3 µg/mL) in data set [1], 6 µM (≈ 14.6 µg/mL) in data set [2] and 3 µM (≈ 7.29 µg/mL) in data set [3]. Also, the Activity in [15] was over 80%; in data set [17], 93.4%; in data set [18] it was “Active”. Besides, in data set [16], the pEC50 is under 3.00. In data set [4], the HC10 was over 10000 µg/mL.

With `CC(=O)N[C@@H](CCCNC(=N)N)C(=O)NCC(=O)N[C@@H](CCCNC(=N)N)C(=O)N[C@@H](CCCCN)C(=O)NCC(=O)NCC(=O)N[C@@H](CCCNC(=N)N)C(=O)N[C@@H](CCCNC(=N)N)C(=O)NCCCC[C@H](NC(=O)[C@H](CCCNC(=N)N)NC(=O)[C@H](CCCNC(=N)N)NC(=O)CNC(=O)CNC(=O)[C@H](CCCCN)NC(=O)[C@H](CCCNC(=N)N)NC(=O)CNC(=O)[C@H](CCCNC(=N)N)NC(C)=O)C(=O)N[C@@H](CCCCN)C(=O)O` (I: Ac-RGRKGGRRKK-OH / II: Ac-RGRKGGRR; amide I:9-II:C), the values for the MIC in data set [1], in [2] and in data set [3] were 6 µM (≈ 13.2 µg/mL), 3 µM (≈ 6.62 µg/mL) and 1.5 µM (≈ 3.31 µg/mL), respectively. Further, the pEC50 in data set [16] was under 3.00. Besides, the HC10 in [4] was over 10000 µg/mL. In addition, the Activity is 56.1% in [17] and 1.6% in data set [19].

For the molecule `CCCCCCCCCCCCCCCC(=O)N[C@@H](CCCNC(=N)N)C(=O)NCC(=O)N[C@@H](CCCNC(=N)N)C(=O)N[C@@H](CCCCN)C(=O)N[C@H](C(=O)N[C@H](C(=O)N[C@@H](CCCNC(=N)N)C(=O)N[C@@H](CCCNC(=N)N)C(=O)N[C@@H](CCCCN)C(=O)N[C@@H](CCCCN)C(=O)O)C(C)C)C(C)C` (Palmitoyl-RGRKVVRRKK-OH), the MIC in data set [1] amounted to 80 µM (≈ 122 µg/mL); in data set [2], 40 µM (≈ 60.8 µg/mL); in data set [3] it was 10 µM (≈ 15.2 µg/mL). In addition, the HC10 in data set [4] came out at 5481 µg/mL. The Activity result in [5] is on record as “Not Active”.
